# Values joined by “and” are separate entries in the source; they are usually repeats but may differ in a detail not shown here. Identical values can stand only once. Like-named read-outs stand apart in the source and are kept apart here.
# Key:
# MCF-7 cells = assay: MCF-7 cell proliferation, CTG reagent, 6-day treatment, single agents and combination (CompuSyn synergy analysis); type: cell-based
# Protocol: The effect of 6-day compound treatment on cell proliferation was measured using CTG reagent.
# Z-138 cells = assay: Z-138 cell proliferation, CTG reagent, 3-day treatment, single agents and combination (CompuSyn synergy analysis); type: cell-based
# Protocol: Z-138 cells were treated with serial dilutions of Compound-44A (CDK7 inhibitor), serial dilutions of venetoclax individually and in combination for 3 days. The effect of 3-day compound treatment on cell proliferation was measured using CTG reagent. Percentage inhibition of cell proliferation in individual (Compound-44A, venetoclax) and combination treatments (Compound-44A+venetoclax) were analyzed using CompuSyn software to assess synergy.
smiles,measurement,setting,value
"CC(C)[C@H](C(=O)Nc1cc(C2CC2)[nH]n1)c1cccc(-c2ccc(NC(=O)/C=C/CN3CCOCC3)nc2)c1 (single isomer, unassigned) [Compound-44A]",% Inhibition of proliferation,"MCF-7 cells; Compound-44A 0.006272 nM, Day-6",−4.1% and −1.7% and 4.8%
same,% Inhibition of proliferation,"MCF-7 cells; Compound-44A 0.018817 nM, Day-6",4.6% and 3.8%
same,% Inhibition of proliferation,"MCF-7 cells; Compound-44A 0.056450 nM, Day-6",−11.5% and −2.9% and −2.8%
same,% Inhibition of proliferation,"MCF-7 cells; Compound-44A 4.5725 nM, Day-6",12.9% and 11.7%
same,% Inhibition of proliferation,"MCF-7 cells; Compound-44A 13.7174 nM, Day-6",44.3% and 47.5%
same,% Inhibition of proliferation,"MCF-7 cells; Compound-44A 41.1523 nM, Day-6",75.4% and 75.5%
same,% Inhibition of proliferation,"MCF-7 cells; Compound-44A 123.4568 nM, Day-6",84%
same,% Inhibition of proliferation,"MCF-7 cells; Compound-44A 370.3704 nM, Day-6",87.5% and 86.2%
same,% Inhibition of proliferation,"MCF-7 cells; Compound-44A 1111.11 nM, Day-6",106.1%
same,% Inhibition of proliferation,"MCF-7 cells; Compound-44A 3333.333 nM, Day-6",106.1% and 106.3%
same,% Inhibition of proliferation,"MCF-7 cells; Compound-44A 10000 nM, Day-6",106.4% and 106.3%
same,% Inhibition of proliferation,"MCF-7 cells; Compound-44A 30000 nM, Day-6",112.3%
same,inhibition at 0.0005 µM,"MCF-7 cells; Homo sapiens, MCF7, 144 h, Fulvestrant 0 nM + Compound-44A 0.50 nM, 6 days",4%
same,inhibition at 0.0015 µM,"MCF-7 cells; Homo sapiens, MCF7, 144 h, Fulvestrant 0 nM + Compound-44A 1.50 nM, 6 days",4%
same,inhibition at 0.041 µM,"MCF-7 cells; Homo sapiens, MCF7, 144 h, Fulvestrant 0 nM + Compound-44A 41.00 nM, 6 days",74%
same,inhibition at 0.123 µM,"MCF-7 cells; Homo sapiens, MCF7, 144 h, Fulvestrant 0 nM + Compound-44A 123.00 nM, 6 days",83%
same,inhibition at 0.3703 µM,"MCF-7 cells; Homo sapiens, MCF7, 144 h, Fulvestrant 0 nM + Compound-44A 370.30 nM, 6 days",87%
same,inhibition at 18.82 pM,"MCF-7 cells; Homo sapiens, MCF7, Compound-44A 0.018817 nM, Day-6",2.9%
same,inhibition at 0.0045725 µM,"MCF-7 cells; Homo sapiens, MCF7, Compound-44A 4.5725 nM, Day-6",13.6%
same,inhibition at 0.0137174 µM,"MCF-7 cells; Homo sapiens, MCF7, Compound-44A 13.7174 nM, Day-6",48.3%
same,inhibition at 0.0411523 µM,"MCF-7 cells; Homo sapiens, MCF7, Compound-44A 41.1523 nM, Day-6",71.6%
same,inhibition at 0.123457 µM,"MCF-7 cells; Homo sapiens, MCF7, Compound-44A 123.4568 nM, Day-6",81.6%
same,inhibition at 0.37037 µM,"MCF-7 cells; Homo sapiens, MCF7, Compound-44A 370.3704 nM, Day-6",88.5%
same,inhibition at 1.11111 µM,"MCF-7 cells; Homo sapiens, MCF7, Compound-44A 1111.11 nM, Day-6",105%
same,inhibition at 3.33333 µM,"MCF-7 cells; Homo sapiens, MCF7, Compound-44A 3333.333 nM, Day-6",106%
same,inhibition at 10 µM,"MCF-7 cells; Homo sapiens, MCF7, Compound-44A 10000 nM, Day-6",106%
same,inhibition at 30 µM,"MCF-7 cells; Homo sapiens, MCF7, Compound-44A 30000 nM, Day-6",112%
same,synergy in inhibiting the proliferation of breast cancer cell line MCF-7,MCF-7 cells; in combination with fulvestrant,synergy
same,inhibition of proliferation in MCF-7 cells,"MCF-7 cells; single agent, serial dilutions, 6 days",dose dependent inhibition of proliferation
same,% Inhibition of proliferation,"Z-138 cells; Compound-44A 0.0015 μM, Day-3",−1.8% and 3.5%
same,% Inhibition of proliferation,"Z-138 cells; Compound-44A 0.0046 μM, Day-3",5.8% and 5.6% and −3.4%
same,% Inhibition of proliferation,"Z-138 cells; Compound-44A 0.0412 μM, Day-3",63.6% and 62.2%
same,% Inhibition of proliferation,"Z-138 cells; Compound-44A 0.1235 μM, Day-3",72.1% and 74.5%
same,% Inhibition of proliferation,"Z-138 cells; Compound-44A 0.3704 μM, Day-3",77.2% and 77.3%
same,% Inhibition of proliferation,"Z-138 cells; Compound-44A 1.1111 μM, Day-3",99.3% and 98.8%
same,% Inhibition of proliferation,"Z-138 cells; Compound-44A 3.3333 μM, Day-3",99.9%
same,% Inhibition of proliferation,"Z-138 cells; Compound-44A 10.0000 μM, Day-3",99.9%
same,inhibition at 0.0015 µM,"Z-138 cells; Homo sapiens, Z-138, 72 h, Venetoclax 0.0 μM + Compound-44A 0.0015 μM, 3 days",2%
same,inhibition at 0.0412 µM,"Z-138 cells; Homo sapiens, Z-138, 72 h, Venetoclax 0.0 μM + Compound-44A 0.0412 μM, 3 days, read-out: % Inhibition in proliferation",63%
same,inhibition at 0.1235 µM,"Z-138 cells; Homo sapiens, Z-138, 72 h, Venetoclax 0.0 μM + Compound-44A 0.1235 μM, 3 days, read-out: % Inhibition in proliferation",73%
same,inhibition at 0.3704 µM,"Z-138 cells; Homo sapiens, Z-138, 72 h, Venetoclax 0.0 μM + Compound-44A 0.3704 μM, 3 days, read-out: % Inhibition in proliferation",77%
same,inhibition at 1.1111 µM,"Z-138 cells; Homo sapiens, Z-138, 72 h, Venetoclax 0.0 μM + Compound-44A 1.1111 μM, 3 days, read-out: % Inhibition in proliferation",99%
same,inhibition at 0.0412 µM,"Z-138 cells; Homo sapiens, Z-138, Compound-44A 0.0412 μM, Day-3, read-out: % Inhibition of proliferation",62.1%
same,inhibition at 0.1235 µM,"Z-138 cells; Homo sapiens, Z-138, Compound-44A 0.1235 μM, Day-3, read-out: % Inhibition of proliferation",72.4%
same,inhibition at 0.3704 µM,"Z-138 cells; Homo sapiens, Z-138, Compound-44A 0.3704 μM, Day-3, read-out: % Inhibition of proliferation",76.6%
same,inhibition at 1.1111 µM,"Z-138 cells; Homo sapiens, Z-138, Compound-44A 1.1111 μM, Day-3, read-out: % Inhibition of proliferation",99.4%
same,inhibition at 3.3333 µM,"Z-138 cells; Homo sapiens, Z-138, Compound-44A 3.3333 μM, Day-3",100%
same,inhibition at 10 µM,"Z-138 cells; Homo sapiens, Z-138, Compound-44A 10.0000 μM, Day-3",100%
same,synergy in inhibiting the proliferation of leukemia cancer cell line Z-138,Z-138 cells; in combination with venetoclax,synergy
same,inhibition of proliferation in Z-138 cells,"Z-138 cells; single agent, serial dilutions, 3 days",dose dependent inhibition of proliferation
